In publication PMC5218480 (PLoS ONE, 2017):

System: MV-4-11 cells
Assay: Gene expression microarray analysis (Affymetrix PrimeView) and GSEA
Assay type: cell-based, human
Set-up: RFU PODN (11730768_x_at) / Fold change /veh PODN (11730768_x_at) / RFU LINC00158 (11744669_a_at) / Fold change /veh LINC00158 (11744669_a_at) / RFU DUSP10 (11751237_a_at) / Fold change /veh DUSP10 (11751237_a_at) / RFU ID3 (11757404_x_at) / Fold change /veh ID3 (11757404_x_at) / RFU PLEKHG5 (11737974_s_at) / Fold change /veh PLEKHG5 (11737974_s_at) / RFU LRRC4B (11730491_at) / Fold change /veh LRRC4B (11730491_at) / RFU GIMAP4 (11747438_a_at) / Fold change /veh GIMAP4 (11747438_a_at) / RFU KRT8 (11758183_x_at) / Fold change /veh KRT8 (11758183_x_at) / RFU CNN1 (11734310_a_at) / Fold change /veh CNN1 (11734310_a_at) / RFU VPS37D (11726825_at) / Fold change /veh VPS37D (11726825_at) / RFU C10orf10 (11716522_x_at) / Fold change /veh C10orf10 (11716522_x_at) / RFU KIR2DL2 /// KIR2DL4 /// KIR2DL5A /// KIR2DL5B /// KIR2DS1 /// KIR2DS2 /// KIR2DS3 /// KIR2DS4 /// KIR3DL3 /// KIR3DL3 /// KIR3DS1 (11738374_at) / Fold change /veh KIR2DL2 /// KIR2DL4 /// KIR2DL5A /// KIR2DL5B /// KIR2DS1 /// KIR2DS2 /// KIR2DS3 /// KIR2DS4 /// KIR3DL3 /// KIR3DL3 /// KIR3DS1 (11738374_at) / RFU C1QL1 (11718748_at) / Fold change /veh C1QL1 (11718748_at) / RFU TMPRSS4 (11747572_a_at) / Fold change /veh TMPRSS4 (11747572_a_at) / RFU HAMP (11756126_x_at) / Fold change /veh HAMP (11756126_x_at) / RFU RNFT2 (11725882_a_at) / Fold change /veh RNFT2 (11725882_a_at) / RFU NR4A2 (11747474_a_at) / Fold change /veh NR4A2 (11747474_a_at) / RFU ABCC12 (11746883_a_at) / Fold change /veh ABCC12 (11746883_a_at) / RFU TMEM136 (11760407_x_at) / Fold change /veh TMEM136 (11760407_x_at) / RFU CLDN22 /// WWC2 (11732394_at) / Fold change /veh CLDN22 /// WWC2 (11732394_at) / RFU HLA-DPB1 (11760878_x_at) / Fold change /veh HLA-DPB1 (11760878_x_at) / RFU SPINT1 (11716480_a_at) / Fold change /veh SPINT1 (11716480_a_at) / RFU GAP43 (11754022_s_at) / Fold change /veh GAP43 (11754022_s_at) / RFU A4GNT (11735810_at) / Fold change /veh A4GNT (11735810_at) / RFU PRB3 (11715151_x_at) / Fold change /veh PRB3 (11715151_x_at) / RFU TUBB4B (11761932_at) / Fold change /veh TUBB4B (11761932_at) / RFU CAPN14 (11732068_a_at) / Fold change /veh CAPN14 (11732068_a_at) / RFU TMCC2 (11721928_a_at) / Fold change /veh TMCC2 (11721928_a_at) / RFU IRGQ (11745062_a_at) / Fold change /veh IRGQ (11745062_a_at) / RFU FAM174B (11720279_a_at) / Fold change /veh FAM174B (11720279_a_at) / RFU TMPRSS4 (11748680_a_at) / Fold change /veh TMPRSS4 (11748680_a_at) / RFU FAM212B (11763350_a_at) / Fold change /veh FAM212B (11763350_a_at) / RFU PLEKHG5 (11743358_a_at) / Fold change /veh PLEKHG5 (11743358_a_at) / RFU ZSCAN30 (11745921_a_at) / Fold change /veh ZSCAN30 (11745921_a_at) / RFU CMKLR1 (11741424_a_at) / Fold change /veh CMKLR1 (11741424_a_at) / RFU LOC101060620 /// MAPK8IP1 (11723275_at) / Fold change /veh LOC101060620 /// MAPK8IP1 (11723275_at) / RFU SPTSSB (11747773_x_at) / Fold change /veh SPTSSB (11747773_x_at) / RFU PRSS12 (11739890_at) / Fold change /veh PRSS12 (11739890_at) / RFU BIN1 (11741810_x_at) / Fold change /veh BIN1 (11741810_x_at) / RFU WNT11 (11732464_a_at) / Fold change /veh WNT11 (11732464_a_at) / RFU C10orf10 (11716521_a_at) / Fold change /veh C10orf10 (11716521_a_at) / RFU C5orf56 (11738089_at) / Fold change /veh C5orf56 (11738089_at) / RFU CYB561 (11721691_x_at) / Fold change /veh CYB561 (11721691_x_at) / RFU ANKRD19P (11752326_a_at) / Fold change /veh ANKRD19P (11752326_a_at) / RFU OR2T12 /// OR2T33 /// OR2T8 (11738714_s_at) / Fold change /veh OR2T12 /// OR2T33 /// OR2T8 (11738714_s_at) / RFU VCAN (11748164_a_at) / Fold change /veh VCAN (11748164_a_at) / RFU JSRP1 (11732532_at) / Fold change /veh JSRP1 (11732532_at) / RFU KRTAP10-11 (11738290_x_at) / Fold change /veh KRTAP10-11 (11738290_x_at) / RFU MYO3A (11730013_a_at) / Fold change /veh MYO3A (11730013_a_at) / RFU EBF3 (11725865_a_at) / Fold change /veh EBF3 (11725865_a_at) / RFU CAMK2N1 (11719241_x_at) / Fold change /veh CAMK2N1 (11719241_x_at) / RFU C5orf56 (11738088_a_at) / Fold change /veh C5orf56 (11738088_a_at) / RFU OLFML3 (11715873_a_at) / Fold change /veh OLFML3 (11715873_a_at) / RFU LOC100653217 /// NTM (11731650_a_at) / Fold change /veh LOC100653217 /// NTM (11731650_a_at) / RFU MAPK11 (11762145_a_at) / Fold change /veh MAPK11 (11762145_a_at) / RFU FIZ1 (11724087_x_at) / Fold change /veh FIZ1 (11724087_x_at) / RFU OASL (11726364_x_at) / Fold change /veh OASL (11726364_x_at) / RFU SOX15 (11748057_x_at) / Fold change /veh SOX15 (11748057_x_at) / RFU CD79A (11719716_a_at) / Fold change /veh CD79A (11719716_a_at) / RFU HIST1H1D (11736915_at) / Fold change /veh HIST1H1D (11736915_at) / RFU CASKIN2 (11723855_a_at) / Fold change /veh CASKIN2 (11723855_a_at) / RFU LOC730098 (11760151_x_at) / Fold change /veh LOC730098 (11760151_x_at) / RFU OR4N2 (11742367_at) / Fold change /veh OR4N2 (11742367_at) / RFU PRRT2 (11749266_a_at) / Fold change /veh PRRT2 (11749266_a_at) / RFU SNX32 (11753110_a_at) / Fold change /veh SNX32 (11753110_a_at) / RFU CDHR5 (11726645_a_at) / Fold change /veh CDHR5 (11726645_a_at) / RFU RCAN1 (11760418_a_at) / Fold change /veh RCAN1 (11760418_a_at) / RFU FAM167A (11723789_a_at) / Fold change /veh FAM167A (11723789_a_at) / RFU FAM26E (11764081_at) / Fold change /veh FAM26E (11764081_at) / RFU ISYNA1 (11749810_s_at) / Fold change /veh ISYNA1 (11749810_s_at) / RFU ACY1 (11761880_at) / Fold change /veh ACY1 (11761880_at) / RFU 11764098_at / Fold change /veh 11764098_at / RFU SAMD14 (11745864_x_at) / Fold change /veh SAMD14 (11745864_x_at) / RFU NPB (11741838_a_at) / Fold change /veh NPB (11741838_a_at) / RFU TMPRSS6 (11731388_a_at) / Fold change /veh TMPRSS6 (11731388_a_at) / RFU KRTAP10-2 (11738614_at) / Fold change /veh KRTAP10-2 (11738614_at) / RFU ARHGAP8 /// PRR5-ARHGAP8 (11727945_x_at) / Fold change /veh ARHGAP8 /// PRR5-ARHGAP8 (11727945_x_at) / RFU KRTAP5-7 /// NADSYN1 (11734609_at) / Fold change /veh KRTAP5-7 /// NADSYN1 (11734609_at) / RFU RASL12 (11751679_a_at) / Fold change /veh RASL12 (11751679_a_at) / RFU CDKN2B (11736163_a_at) / Fold change /veh CDKN2B (11736163_a_at) / RFU PRF1 (11729649_at) / Fold change /veh PRF1 (11729649_at) / RFU, ZNF638 /// ZNF638-IT1 / Fold change vs veh, ZNF638 /// ZNF638-IT1 / RFU, PANK3 / Fold change vs veh, PANK3 / RFU, SH3YL1 / Fold change vs veh, SH3YL1 / RFU, ZEB2 / Fold change vs veh, ZEB2 / RFU, NRIP1 / Fold change vs veh, NRIP1 / RFU, PTTG1IP / Fold change vs veh, PTTG1IP / RFU, CAPN2 / Fold change vs veh, CAPN2 / RFU, MED14 / Fold change vs veh, MED14 / RFU, SNORA58 / Fold change vs veh, SNORA58 / RFU, C1orf63 / Fold change vs veh, C1orf63 / RFU, LRRFIP1 / Fold change vs veh, LRRFIP1 / RFU, NDUFAF7 / Fold change vs veh, NDUFAF7 / RFU, SLC12A2 / Fold change vs veh, SLC12A2 / RFU, IBTK / Fold change vs veh, IBTK / RFU, ESF1 / Fold change vs veh, ESF1 / Fold change vs veh, TMEM50B / RFU, TAOK1 / Fold change vs veh, TAOK1 / RFU, ACBD3 / Fold change vs veh, ACBD3 / RFU, TMA16 / Fold change vs veh, TMA16 / RFU, RWDD3 / Fold change vs veh, RWDD3 / RFU, BCAT1 / Fold change vs veh, BCAT1 / RFU, EDEM3 / Fold change vs veh, EDEM3 / RFU, TMEM33 / Fold change vs veh, TMEM33 / RFU, WDR75 / Fold change vs veh, WDR75 / RFU, AHCTF1 / Fold change vs veh, AHCTF1 / RFU, TFRC / Fold change vs veh, TFRC / RFU, ZDHHC17 / Fold change vs veh, ZDHHC17 / RFU, NOM1 / Fold change vs veh, NOM1 / RFU, ARL8B / Fold change vs veh, ARL8B / RFU, ZBTB11 / Fold change vs veh, ZBTB11 / RFU, TAMM41 / Fold change vs veh, TAMM41 / RFU, KIAA1704 /// LOC100996395 / Fold change vs veh, KIAA1704 /// LOC100996395 / RFU, ING1 / Fold change vs veh, ING1 / RFU, TRMT61B / Fold change vs veh, TRMT61B / RFU, FUBP3 / Fold change vs veh, FUBP3 / RFU, TP53 / Fold change vs veh, TP53 / RFU, TNKS2 / Fold change vs veh, TNKS2 / RFU, ZFP14 / Fold change vs veh, ZFP14 / RFU, ACTR2 / Fold change vs veh, ACTR2 / RFU, PPP3R1 / Fold change vs veh, PPP3R1 / RFU, PIK3R1 / Fold change vs veh, PIK3R1 / RFU, HNRNPA1 / Fold change vs veh, HNRNPA1 / RFU, RNF170 / Fold change vs veh, RNF170 / RFU, ZNF28 / Fold change vs veh, ZNF28 / RFU, RNGTT / Fold change vs veh, RNGTT / RFU, OGT / Fold change vs veh, OGT / RFU, BRD1 / Fold change vs veh, BRD1 / RFU, MARS / Fold change vs veh, MARS / RFU, ZNF655 / Fold change vs veh, ZNF655 / RFU, FAHD1 / Fold change vs veh, FAHD1 / RFU, BDP1 / Fold change vs veh, BDP1 / RFU, LRRCC1 / Fold change vs veh, LRRCC1 / RFU, ARID1A / Fold change vs veh, ARID1A / RFU, ZNF146 / Fold change vs veh, ZNF146 / RFU, ZNF330 / Fold change vs veh, ZNF330 / RFU, GPN3 / Fold change vs veh, GPN3 / RFU, C9orf123 / Fold change vs veh, C9orf123 / RFU, N4BP2L2 / Fold change vs veh, N4BP2L2 / RFU, ARFIP1 / Fold change vs veh, ARFIP1 / RFU, FAM179B / Fold change vs veh, FAM179B / RFU, BCL10 / Fold change vs veh, BCL10 / RFU, UHRF1BP1L / Fold change vs veh, UHRF1BP1L / RFU, BET1 / Fold change vs veh, BET1 / RFU, CNOT2 / Fold change vs veh, CNOT2 / RFU, ZNF268 / Fold change vs veh, ZNF268 / Fold change vs veh, ZNF507 / RFU, DGCR2 / Fold change vs veh, DGCR2 / RFU, WDSUB1 / Fold change vs veh, WDSUB1 / Fold change vs veh, HSP90B1 /// MIR3652 / RFU, ADSS / Fold change vs veh, ADSS / RFU, GK / Fold change vs veh, GK / RFU, ZNF148 / Fold change vs veh, ZNF148 / RFU, TAF9 / Fold change vs veh, TAF9 / RFU, SLC1A5 / Fold change vs veh, SLC1A5 / RFU, SLMO2 / Fold change vs veh, SLMO2 / RFU, ABCC4 / Fold change vs veh, ABCC4 / RFU, LOC101060439 /// RAP1B / Fold change vs veh, LOC101060439 /// RAP1B / RFU, RFX7 / Fold change vs veh, RFX7 / RFU, GTPBP10 / Fold change vs veh, GTPBP10 / RFU, CNEP1R1 / Fold change vs veh, CNEP1R1 / RFU, BIVM-ERCC5 /// ERCC5 / Fold change vs veh, BIVM-ERCC5 /// ERCC5 / RFU, ILF3 / Fold change vs veh, ILF3 / RFU 11762660_at / Fold change /veh 11762660_at / RFU VCAN (11757783_s_at) / Fold change /veh VCAN (11757783_s_at) / RFU DDX43 (11728927_at) / Fold change /veh DDX43 (11728927_at) / RFU KRT8 (11758188_x_at) / Fold change /veh KRT8 (11758188_x_at) / RFU NKD1 (11759106_at) / Fold change /veh NKD1 (11759106_at) / RFU SRD5A1 (11742802_a_at) / Fold change /veh SRD5A1 (11742802_a_at) / RFU TPSAB1 /// TPSB2 (11721975_s_at) / Fold change /veh TPSAB1 /// TPSB2 (11721975_s_at) / RFU GSTM3 (11746129_a_at) / Fold change /veh GSTM3 (11746129_a_at) / RFU IL23R (11737362_x_at) / Fold change /veh IL23R (11737362_x_at) / RFU TMEM51 (11727254_a_at) / Fold change /veh TMEM51 (11727254_a_at) / RFU PIWIL2 (11732686_x_at) / Fold change /veh PIWIL2 (11732686_x_at) / RFU ORM1 (11744905_x_at) / Fold change /veh ORM1 (11744905_x_at) / RFU CCDC152 (11743942_at) / Fold change /veh CCDC152 (11743942_at) / RFU ECM1 (11717891_a_at) / Fold change /veh ECM1 (11717891_a_at) / RFU IL23R (11748794_a_at) / Fold change /veh IL23R (11748794_a_at) / RFU TNFAIP8L3 (11732012_x_at) / Fold change /veh TNFAIP8L3 (11732012_x_at) / RFU MBOAT4 (11741988_at) / Fold change /veh MBOAT4 (11741988_at) / RFU 11764193_at / Fold change /veh 11764193_at / RFU TMEM53 (11763286_at) / Fold change /veh TMEM53 (11763286_at) / RFU MAGEB2 (11727129_at) / Fold change /veh MAGEB2 (11727129_at) / RFU TMEM200A (11744735_a_at) / Fold change /veh TMEM200A (11744735_a_at) / RFU CCDC152 (11751479_a_at) / Fold change /veh CCDC152 (11751479_a_at) / RFU FAM211A (11726209_a_at) / Fold change /veh FAM211A (11726209_a_at) / RFU RGS16 (11746705_a_at) / Fold change /veh RGS16 (11746705_a_at) / RFU VCAN (11755009_s_at) / Fold change /veh VCAN (11755009_s_at) / RFU RHOB (11743442_s_at) / Fold change /veh RHOB (11743442_s_at) / RFU RGS16 (11720943_a_at) / Fold change /veh RGS16 (11720943_a_at) / RFU RGS16 (11720944_at) / Fold change /veh RGS16 (11720944_at) / RFU, VPS4B / Fold change vs veh, VPS4B / RFU, CREB1 / Fold change vs veh, CREB1 / RFU, DNAJC13 / Fold change vs veh, DNAJC13 / RFU, GNAQ / Fold change vs veh, GNAQ / RFU, CDK5R1 / Fold change vs veh, CDK5R1 / RFU, ZRANB3 / Fold change vs veh, ZRANB3 / RFU, CUL4A / Fold change vs veh, CUL4A / RFU, CCNY / Fold change vs veh, CCNY / RFU, UFL1 / Fold change vs veh, UFL1 / RFU, COG3 / Fold change vs veh, COG3 / RFU, DIAPH2 / Fold change vs veh, DIAPH2 / RFU, SKA2 / Fold change vs veh, SKA2 / RFU, AFF3 / Fold change vs veh, AFF3 / RFU, LMF1 / Fold change vs veh, LMF1 / RFU, IPO11 / Fold change vs veh, IPO11 / RFU, DFFB / Fold change vs veh, DFFB / RFU, FOXP1 / Fold change vs veh, FOXP1 / RFU, CARD8 / Fold change vs veh, CARD8 / RFU, STRN3 / Fold change vs veh, STRN3 / RFU, ADK / Fold change vs veh, ADK / RFU, RASSF2 / Fold change vs veh, RASSF2 / RFU, WIPF1 / Fold change vs veh, WIPF1 / RFU, LARP1B / Fold change vs veh, LARP1B / RFU, RASA1 / Fold change vs veh, RASA1 / RFU, RB1 / Fold change vs veh, RB1 / RFU, PPFIA1 / Fold change vs veh, PPFIA1 / RFU, MAT2A / Fold change vs veh, MAT2A / RFU, CCT5 / Fold change vs veh, CCT5 / RFU, WDR92 / Fold change vs veh, WDR92 / RFU, CUX1 / Fold change vs veh, CUX1 / RFU, TTC7A / Fold change vs veh, TTC7A / RFU, TMEM135 / Fold change vs veh, TMEM135 / RFU, DEPTOR / Fold change vs veh, DEPTOR / RFU, CPM / Fold change vs veh, CPM / RFU, DNAJB6 / Fold change vs veh, DNAJB6 / RFU, CACNA2D3 / Fold change vs veh, CACNA2D3 / RFU, DTX4 / Fold change vs veh, DTX4 / RFU, TFCP2 / Fold change vs veh, TFCP2 / RFU, GMCL1 /// GMCL1P1 / Fold change vs veh, GMCL1 /// GMCL1P1 / RFU, AEBP2 / Fold change vs veh, AEBP2 / RFU, SNHG1 /// SNORD22 /// SNORD25 /// SNORD26 /// SNORD27 /// SNORD28 /// SNORD29 /// SNORD31 / Fold change vs veh, SNHG1 /// SNORD22 /// SNORD25 /// SNORD26 /// SNORD27 /// SNORD28 /// SNORD29 /// SNORD31 / Fold change (Aza/veh), C12orf56 (ProbeSet 11735607_a_at) / Fold change (ACY-1035/veh), C12orf56 (ProbeSet 11735607_a_at) / Fold change (Aza/veh), FGFR1OP (ProbeSet 11751329_s_at) / Fold change (ACY-1035/veh), FGFR1OP (ProbeSet 11751329_s_at) / Fold change (Aza/veh), VPS36 (ProbeSet 11739960_a_at) / Fold change (ACY-1035/veh), VPS36 (ProbeSet 11739960_a_at) / RFU SYPL1 (11715823_x_at) / Fold change /veh SYPL1 (11715823_x_at) / RFU IGFBP7 (11715501_s_at) / Fold change /veh IGFBP7 (11715501_s_at) / RFU REEP3 (11722064_at) / Fold change /veh REEP3 (11722064_at) / RFU IGLL1 (11728026_x_at) / Fold change /veh IGLL1 (11728026_x_at): dose or concentration left out as unconfirmed
Conditions: ProbeSet 11733176_x_at; LIST B

Question: How did the “Fold change vs veh, ZNF507” value turn out when Nc1ncn([C@@H]2O[C@H](CO)[C@@H](O)[C@H]2O)c(=O)n1 [azacitidine] was run?
Answer: 0.97
